These results are taken from ChEMBL document CHEMBL5291721, “A preclinical secondary pharmacology resource illuminates target-adverse drug reaction associations of marketed drugs” (Nat Commun, 2023).

Some results are limits rather than exact numbers.

In one test the target is T1, Androgen receptor (Homo sapiens, UniProt P10275).
T1 sequence (P10275 whole entry): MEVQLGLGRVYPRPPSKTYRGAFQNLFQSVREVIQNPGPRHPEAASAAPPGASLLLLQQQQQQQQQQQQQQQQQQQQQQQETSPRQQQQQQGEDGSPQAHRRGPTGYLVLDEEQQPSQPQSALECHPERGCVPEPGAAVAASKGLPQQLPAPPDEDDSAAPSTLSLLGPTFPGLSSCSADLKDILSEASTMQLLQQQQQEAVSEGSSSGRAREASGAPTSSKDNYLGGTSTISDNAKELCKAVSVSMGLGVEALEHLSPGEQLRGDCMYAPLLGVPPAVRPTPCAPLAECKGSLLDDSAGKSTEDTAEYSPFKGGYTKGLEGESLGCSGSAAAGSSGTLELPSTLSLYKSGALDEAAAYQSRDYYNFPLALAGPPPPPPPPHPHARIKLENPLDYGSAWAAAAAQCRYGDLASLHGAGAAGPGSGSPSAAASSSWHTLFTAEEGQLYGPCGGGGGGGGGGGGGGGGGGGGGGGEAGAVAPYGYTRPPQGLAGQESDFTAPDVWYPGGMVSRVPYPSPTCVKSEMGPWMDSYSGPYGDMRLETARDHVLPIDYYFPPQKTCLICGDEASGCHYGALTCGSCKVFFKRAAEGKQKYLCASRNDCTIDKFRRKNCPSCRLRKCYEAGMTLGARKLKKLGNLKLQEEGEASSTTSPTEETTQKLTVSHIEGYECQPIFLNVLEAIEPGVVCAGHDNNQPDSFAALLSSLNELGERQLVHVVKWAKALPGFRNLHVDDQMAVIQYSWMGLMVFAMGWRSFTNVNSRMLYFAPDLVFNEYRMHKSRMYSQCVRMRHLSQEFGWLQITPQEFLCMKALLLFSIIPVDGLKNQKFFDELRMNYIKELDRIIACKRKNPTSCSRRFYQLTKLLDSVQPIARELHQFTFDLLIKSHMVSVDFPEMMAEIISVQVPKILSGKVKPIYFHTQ

For test [1], the target named is T2, Peroxisome proliferator-activated receptor gamma (Homo sapiens, UniProt P37231).
T2 sequence (P37231 whole entry): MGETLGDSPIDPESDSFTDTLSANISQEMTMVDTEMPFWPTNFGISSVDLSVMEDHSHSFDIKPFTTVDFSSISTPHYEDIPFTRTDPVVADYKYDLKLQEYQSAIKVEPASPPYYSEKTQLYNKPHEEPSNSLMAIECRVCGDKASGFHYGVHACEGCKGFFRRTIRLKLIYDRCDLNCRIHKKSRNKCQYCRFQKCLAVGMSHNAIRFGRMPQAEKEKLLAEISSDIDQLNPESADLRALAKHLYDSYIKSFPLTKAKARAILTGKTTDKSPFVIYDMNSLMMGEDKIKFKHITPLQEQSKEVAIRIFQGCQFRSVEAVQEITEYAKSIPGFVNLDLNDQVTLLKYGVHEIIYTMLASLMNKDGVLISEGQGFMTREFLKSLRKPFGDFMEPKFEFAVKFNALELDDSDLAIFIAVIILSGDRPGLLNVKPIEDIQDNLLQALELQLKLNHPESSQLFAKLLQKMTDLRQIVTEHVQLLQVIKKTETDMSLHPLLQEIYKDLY
Format: functional.

For test [2], the target named is T3, Estrogen receptor (Homo sapiens, UniProt P03372).
T3 sequence (P03372 whole entry): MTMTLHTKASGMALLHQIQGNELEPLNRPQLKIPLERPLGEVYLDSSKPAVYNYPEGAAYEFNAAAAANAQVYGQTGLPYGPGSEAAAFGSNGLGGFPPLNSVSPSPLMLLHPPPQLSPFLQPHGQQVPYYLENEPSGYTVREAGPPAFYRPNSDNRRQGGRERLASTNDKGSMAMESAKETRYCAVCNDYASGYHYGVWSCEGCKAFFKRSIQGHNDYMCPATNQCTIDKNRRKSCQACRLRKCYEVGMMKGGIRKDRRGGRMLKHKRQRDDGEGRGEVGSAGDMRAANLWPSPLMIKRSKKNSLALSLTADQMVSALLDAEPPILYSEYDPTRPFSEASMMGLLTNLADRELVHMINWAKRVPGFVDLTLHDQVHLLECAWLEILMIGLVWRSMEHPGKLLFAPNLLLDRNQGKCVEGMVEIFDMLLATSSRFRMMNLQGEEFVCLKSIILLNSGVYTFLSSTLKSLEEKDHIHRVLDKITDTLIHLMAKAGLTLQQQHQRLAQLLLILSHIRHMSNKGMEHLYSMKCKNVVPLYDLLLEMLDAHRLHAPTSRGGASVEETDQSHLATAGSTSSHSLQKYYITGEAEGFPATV
Format: functional.

In test [3] the target is T2, Peroxisome proliferator-activated receptor gamma. Format: functional. The source holds these as a separate data set.
For the next test, the target named is T4, Glucocorticoid receptor (Homo sapiens, UniProt P04150).
T4 sequence (P04150 whole entry): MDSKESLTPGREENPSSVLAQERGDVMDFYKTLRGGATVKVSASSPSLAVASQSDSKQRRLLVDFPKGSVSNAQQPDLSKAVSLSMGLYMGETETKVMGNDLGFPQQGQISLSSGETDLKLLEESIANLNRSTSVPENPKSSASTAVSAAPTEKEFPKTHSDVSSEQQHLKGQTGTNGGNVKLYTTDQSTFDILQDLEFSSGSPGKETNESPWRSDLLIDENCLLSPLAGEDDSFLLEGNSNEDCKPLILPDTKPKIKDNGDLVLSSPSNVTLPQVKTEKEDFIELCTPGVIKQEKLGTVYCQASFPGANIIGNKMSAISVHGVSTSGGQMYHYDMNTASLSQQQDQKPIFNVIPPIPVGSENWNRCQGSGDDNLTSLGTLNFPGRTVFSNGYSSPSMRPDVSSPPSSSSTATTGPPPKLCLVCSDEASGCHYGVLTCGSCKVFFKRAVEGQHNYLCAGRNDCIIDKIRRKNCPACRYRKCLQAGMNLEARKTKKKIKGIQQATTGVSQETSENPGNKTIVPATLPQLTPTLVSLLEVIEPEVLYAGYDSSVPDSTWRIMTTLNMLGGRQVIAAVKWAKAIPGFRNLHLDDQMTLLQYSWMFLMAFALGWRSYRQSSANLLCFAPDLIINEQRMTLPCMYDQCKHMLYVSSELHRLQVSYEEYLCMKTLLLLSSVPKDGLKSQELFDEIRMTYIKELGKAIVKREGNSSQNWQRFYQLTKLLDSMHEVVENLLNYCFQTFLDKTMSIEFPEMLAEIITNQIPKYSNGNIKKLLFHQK
Format: functional.

Test [4] deals with T3, Estrogen receptor.
Also: assay procedure not described here.

A word on the AC50: it is the concentration giving half of the maximal activity seen. A higher AC50 goes with weaker potency. Regarding `OC[C@H]1NC[C@H](O)[C@@H](O)[C@H]1O`, the AC50 at Androgen receptor is more than 30 µM.
In the case of `CCOCC(O)COc1ccc(NC(=O)CC[S+](C)C)cc1` (centres undefined), the AC50 (in test [1]; at Estrogen receptor [2]; in test [3]; on Glucocorticoid receptor) was more than 30 µM throughout.
On Estrogen receptor [4], `CCOC(=O)[C@H](CCc1ccccc1)N[C@@H](C)C(=O)N1Cc2ccccc2C[C@H]1C(=O)O` came in with an AC50 of more than 30 µM.
With `C=CC1=C(C(=O)O)N2C(=O)[C@@H](NC(=O)/C(=N\O)c3csc(N)n3)[C@H]2SC1`, the AC50 at Estrogen receptor [4] was more than 30 µM.
As for `CC#CC(=O)N1CCC[C@H]1c1nc(-c2ccc(C(=O)Nc3ccccn3)cc2)c2c(N)nccn12` [ACALABRUTINIB], the concentration at half-maximal activity (AC50) on Androgen receptor is more than 30 µM.
The compound `O=C(O)COC(=O)Cc1ccccc1Nc1c(Cl)cccc1Cl` [ACECLOFENAC] returned an AC50 on Estrogen receptor [4] of more than 30 µM.
On the same count and under the same terms, in the case of `CN(C)CCc1c[nH]c2ccc(CS(=O)(=O)N3CCCC3)cc12` [ALMOTRIPTAN] it was more than 30 µM.
In turn, `CC[N+](CC)(CCNC(=O)C(=O)NCC[N+](CC)(CC)Cc1ccccc1Cl)Cc1ccccc1Cl` [AMBENONIUM] displayed an AC50 at Estrogen receptor [4] of more than 30 µM.
At Estrogen receptor [4], `NCCCNCCSP(=O)(O)O` [AMIFOSTINE] showed an AC50 of more than 30 µM.
Turning to `NCCCCCC(=O)O` [AMINOCAPROIC ACID], the AC50 on Estrogen receptor [4] is more than 10 µM.
On the same count and under the same terms, in the case of `CC(C)NCC(O)COc1ccc(CC(N)=O)cc1` (centres undefined) [ATENOLOL] it was more than 30 µM.
The compound `CC(C)C[C@H](NC(=O)[C@H](Cc1ccccc1)NC(=O)c1cnccn1)B(O)O` [BORTEZOMIB] gave an AC50 at Estrogen receptor [4] of more than 30 µM.
Consider `CN(C)CCOC(c1ccc(Cl)cc1)c1ccccn1` (centres undefined) [CARBINOXAMINE], for which the AC50 (in test [1]; at Estrogen receptor [4]; in test [3]) was more than 30 µM throughout.
In the case of `CCN(CC)CCn1c(=O)c(Cc2ccc(OC)cc2)nc2ccccc21` [CAROVERINE], on Estrogen receptor [4], the AC50 is more than 30 µM.
On Androgen receptor, `NC(=O)C1(N2CCCCC2)CCN(CCCN2c3ccccc3CCc3ccccc32)CC1` [CARPIPRAMINE] came in with a concentration at half-maximal activity (AC50) of more than 30 µM.
On the same count and under the same terms, in the case of `O=C(Cc1cccs1)N[C@@H]1C(=O)N2C(C(=O)[O-])=C(C[n+]3ccccc3)CS[C@H]12` [CEPHALORIDINE] it was more than 30 µM.
The compound `CN(C)CCCC1(c2ccc(F)cc2)OCc2cc(C#N)ccc21` (centres undefined) [CITALOPRAM] had an AC50 on Estrogen receptor [4] of more than 30 µM.
With `O=C(O)[C@H]1/C(=C/CO)O[C@@H]2CC(=O)N21` [CLAVULANIC ACID], the AC50 (in test [1]; at Estrogen receptor [2]; in test [3]; at Glucocorticoid receptor) was more than 30 µM in each case.
On to `CC(C)/N=c1\cc2n(-c3ccc(Cl)cc3)c3ccccc3nc-2cc1Nc1ccc(Cl)cc1` [CLOFAZIMINE], for which the figures for the AC50 at Estrogen receptor [4] and on Glucocorticoid receptor were 0.13 µM and more than 30 µM, respectively.
In the case of `CCCCCCCCCCCCCCCC(=O)OC[C@H](COP(=O)([O-])OCC[N+](C)(C)C)OC(=O)CCCCCCCCCCCCCCC` [COLFOSCERIL PALMITATE], the AC50 at Androgen receptor was more than 30 µM.
`C[C@@H](CN1CC(=O)NC(=O)C1)N1CC(=O)NC(=O)C1` [DEXRAZOXANE] yielded an AC50 at Androgen receptor of more than 30 µM.
Still for that read-out and setting: in the case of `C[C@]12CC[C@@H]3c4ccc(OC(=O)N(CCCl)CCCl)cc4CC[C@H]3[C@@H]1CC[C@@H]2OP(=O)(O)O` [ESTRAMUSTINE PHOSPHATE] it was more than 30 µM; in that of `O=c1[nH]c2ccccc2n1CCN1CCN(c2cccc(C(F)(F)F)c2)CC1` [FLIBANSERIN], more than 30 µM.
At Estrogen receptor [4], `C[C@]12CCC(=O)C=C1CC[C@H]1[C@@H]3CC[C@](O)(C(=O)CO)[C@@]3(C)C[C@H](O)[C@@]12F` [FLUDROCORTISONE] came in with an AC50 of more than 30 µM.
Regarding `CCOC(=O)Nc1ccc(NCc2ccc(F)cc2)nc1N` [FLUPIRTINE], the AC50 at Estrogen receptor [4] came to 3 µM.
Turning to `N#Cc1ccnc(N2C(=O)CC[C@H]2C(=O)N(c2cncc(F)c2)[C@H](C(=O)NC2CC(F)(F)C2)c2ccccc2Cl)c1` [IVOSIDENIB], the concentration at half-maximal activity (AC50) at Androgen receptor was more than 30 µM.
On to `N[C@@H](Cc1cc(I)c(Oc2cc(I)c(O)c(I)c2)c(I)c1)C(=O)O` [LEVOTHYROXINE], for which the AC50 in test [1] and in test [3] was more than 30 µM each time.
In the case of `CCCCCCO[C@@H](C)c1cccc(-c2csc(NC(=O)c3cc(Cl)c(/C=C(\C)C(=O)O)c(Cl)c3)n2)c1OC` [LUSUTROMBOPAG], the concentration at half-maximal activity (AC50) at Androgen receptor is more than 30 µM.
`CCCCCCCC/C=C\CCCCCCCC(=O)O` [OLEIC ACID]: the AC50 in test [1] and in test [3] was more than 300 µM each time.
On to `COc1cccc2c1C(=O)c1c(O)c3c(c(O)c1C2=O)C[C@@](O)(C(=O)CO)C[C@@H]3O[C@H]1C[C@H](N)[C@H](O[C@@H]2CCCCO2)[C@H](C)O1` [PIRARUBICIN], for which, at Androgen receptor, the AC50 was more than 30 µM.
Same read-out and setting: to `CC(C)(Oc1ccc(Cl)cc1)C(=O)NC(=O)NCN1CCOCC1` [PLAFIBRIDE] belongs more than 30 µM; to `CC(C)NC[C@H](O)COc1ccc(O)cc1` [PRENALTEROL], more than 30 µM.
As for `CC(=O)SCC(Cc1ccccc1)C(=O)NCC(=O)OCc1ccccc1` (centres undefined) [RACECADOTRIL], the AC50 at Estrogen receptor [4] is more than 30 µM; on Glucocorticoid receptor it was 6.3 µM.
On to `C[C@H](Cn1cnc2c(N)ncnc21)OCP(=O)(O)O` [TENOFOVIR ANHYDROUS], for which the AC50 at Estrogen receptor [4] was more than 30 µM.
With `CC(C)(CO)c1cc2cc(NC(=O)C3(c4ccc5c(c4)OC(F)(F)O5)CC3)c(F)cc2n1C[C@@H](O)CO` [TEZACAFTOR], the concentration at half-maximal activity (AC50) (in test [1]; at Estrogen receptor [2]; in test [3]; at Glucocorticoid receptor) was more than 30 µM in each case.
In the case of `CN(C)CCN(Cc1ccccc1)c1ccccn1` [TRIPELENNAMINE], at Estrogen receptor [4], the half-maximal activity concentration (AC50) was more than 10 µM.
`Cc1c(C)c2c(c(C)c1O)CCC(C)(COc1ccc(CC3SC(=O)NC3=O)cc1)O2` (centres undefined) [TROGLITAZONE]: the AC50 on Estrogen receptor [4] was more than 30 µM; at Estrogen receptor [2], more than 30 µM; at Androgen receptor it was 5.72 µM.
